For 14 compounds, IC50 results are on record in patent publication US20260184687A1, “DIHYDROINDENE DERIVATIVES AS MALT1 INHIBITORS” (C4X Discovery Limited, priority 2022, published 2026).

The target of assay [1] is MALT1-GS-Ub (6-His-hMALT-1 residues 339-715 fused to ubiquitin) (Homo sapiens, UniProt Q9UDY8). Briefly: biochemical.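 Also: in vitro MALT1 protease assay: enzyme preincubated with compound 30 min at room temperature, then cleavage of fluorogenic Ac-LVSR-AMC substrate (100 µM) followed by fluorescence every 15 min.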
Sequence of MALT1-GS-Ub (6-His-hMALT-1 residues 339-715 fused to ubiquitin) (Q9UDY8 with tags, fused parts or gaps limits assumed): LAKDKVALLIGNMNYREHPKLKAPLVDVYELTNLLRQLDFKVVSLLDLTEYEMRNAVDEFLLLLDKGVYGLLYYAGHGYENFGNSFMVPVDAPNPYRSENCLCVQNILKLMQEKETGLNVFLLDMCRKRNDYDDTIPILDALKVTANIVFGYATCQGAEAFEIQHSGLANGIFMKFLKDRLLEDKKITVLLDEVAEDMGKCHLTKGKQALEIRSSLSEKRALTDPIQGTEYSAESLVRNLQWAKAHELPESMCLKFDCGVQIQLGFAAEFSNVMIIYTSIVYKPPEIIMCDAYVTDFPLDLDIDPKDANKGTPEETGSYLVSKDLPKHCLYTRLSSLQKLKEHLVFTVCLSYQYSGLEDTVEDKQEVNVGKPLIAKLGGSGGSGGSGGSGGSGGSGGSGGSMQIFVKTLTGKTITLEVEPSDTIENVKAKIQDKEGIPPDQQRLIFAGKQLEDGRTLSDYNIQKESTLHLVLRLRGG
Description: MALT1 protease activity was assessed in vitro by measuring the cleavage of a fluorogenic tetrapeptide substrate.
A protein (MALT1-GS-Ub) comprising 6-His-hMALT-1 (residues 339-715), fused to ubiquitin with an 8×GGS linker, was expressed in E. coli, and purified using chitin resin to remove contaminants followed by affinity chromatography purification and size-exclusion chromatography, according to standard protocols.
Briefly, MALT1-GS-Ub (300-600 nM) was incubated with substrate (Ac-LVSR-AMC, 100 μM) in reaction buffer comprising 50 mM HEPES (pH7.0), 25 mM KCl, 0.1% (v/v) CHAPS and 1 mM TCEP.
Test compounds dissolved in DMSO were dispensed into assay plates (384-well, black, shallow ProxiPlates). 7 μl enzyme solution was added and incubated at room temperature for 30 minutes to allow compound binding to occur. 2 μl substrate solution was then added and the fluorescence (excitation 360 nm, emission 460 nm) read every 15 minutes using a suitable plate reader. Final assay DMSO concentration was 1%. […] IC50 values were calculated using GraphPad Prism using a 4-parameter non-linear regression curve fit.
Another assay addresses T1, FL hMALT1 enzyme (Homo sapiens, UniProt Q9UDY8).
T1 sequence (Q9UDY8 1-824): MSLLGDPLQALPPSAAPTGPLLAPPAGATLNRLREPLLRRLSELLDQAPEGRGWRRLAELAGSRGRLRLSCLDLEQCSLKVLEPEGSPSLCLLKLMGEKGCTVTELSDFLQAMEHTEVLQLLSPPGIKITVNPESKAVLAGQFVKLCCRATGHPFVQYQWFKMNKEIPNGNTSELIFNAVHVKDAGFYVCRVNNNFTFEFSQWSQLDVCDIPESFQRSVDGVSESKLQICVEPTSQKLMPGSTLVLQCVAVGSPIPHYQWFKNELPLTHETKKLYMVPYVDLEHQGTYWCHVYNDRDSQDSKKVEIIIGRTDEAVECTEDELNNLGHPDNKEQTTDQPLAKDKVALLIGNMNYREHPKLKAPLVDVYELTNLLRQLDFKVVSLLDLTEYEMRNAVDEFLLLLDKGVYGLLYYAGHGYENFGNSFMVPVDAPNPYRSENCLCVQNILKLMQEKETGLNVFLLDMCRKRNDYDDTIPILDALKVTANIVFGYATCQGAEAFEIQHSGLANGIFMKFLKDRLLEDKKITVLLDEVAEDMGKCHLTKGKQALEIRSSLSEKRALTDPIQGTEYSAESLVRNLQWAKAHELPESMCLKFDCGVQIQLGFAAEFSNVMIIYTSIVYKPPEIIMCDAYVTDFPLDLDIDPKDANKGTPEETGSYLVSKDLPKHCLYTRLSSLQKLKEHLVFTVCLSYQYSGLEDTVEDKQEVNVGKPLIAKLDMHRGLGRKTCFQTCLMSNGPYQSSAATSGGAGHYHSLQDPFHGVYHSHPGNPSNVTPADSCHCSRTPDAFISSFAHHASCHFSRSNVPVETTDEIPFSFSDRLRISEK
Kind of assay: biochemical.

Assay [2] concerns IL-2 release from stimulated Jurkat cells. Briefly: Human IL-2 Release Phenotypic Assay (Assay 3). The assay is classed as cell-based. The note with it: Jurkat cells (clone E6-1), 200 ng/mL PMA + 300 ng/mL ionomycin, IL-2 by ELISA. The method, boiled down:
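Jurkat E6-1 cells in RPMI1640/10% FBS were seeded at 50 000 cells/well and incubated overnight at 37° C. Half-log compound dilutions (0.5% final DMSO) were added for 30 min, then cells were stimulated with 200 ng/mL PMA + 300 ng/mL ionomycin for 48 h. IC50 came from a 4-parameter non-linear regression fit.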
For orientation: In an ELISA, binding on a coated surface is turned into a signal by an enzyme label.

pIC50: −log10 of the molar value.

What is called pIC50 is −log10 of the IC50, conventionally taken in molar units. With `CN(C(=O)C1CNC1)C(c1ccc(NC2Cc3ccccc3C2(C)C)cn1)C(F)(F)F` (single isomer, unassigned) [Example 86, N-(1-(5-((1,1-Dimethyl-2,3-dihydro-1H-inden-2-yl)amino)pyridin-2-yl)-2,2,2-trifluoroethyl)-N-methylazetidine-3-carboxamide], the pIC50 in assay [1] was 4.96; on FL hMALT1 enzyme it was less than 5.52.

Consider `CN1CC(C(=O)N(C)C(c2ccc(NC3Cc4ccccc4C3(C)C)cn2)C(F)(F)F)C1` (single isomer, unassigned) [Example 91, N-(1-(5-((1,1-Dimethyl-2,3-dihydro-1H-inden-2-yl)amino)pyridin-2-yl)-2,2,2-trifluoroethyl)-N,1-dimethylazetidine-3-carboxamide], for which the pIC50 in assay [1] was 4.92; on FL hMALT1 enzyme it was less than 5.52.

`CN(C(=O)c1cnon1)[C@@H](c1ccc(NC2Cc3ccccc3C2(C)C)cc1)C(F)(F)F` (single isomer, unassigned) [Example 51] showed a pIC50 in assay [1] of 6.03.

Take `CN(C(=O)OC1CN(C(=O)OC(C)(C)C)C1)[C@@H](c1ccc(NC2Cc3ccccc3C2(C)C)cc1)C(F)(F)F` (stereo partly drawn) [Example 59, tert-Butyl 3-((((1S)-1-(4-((1,1-dimethyl-2,3-dihydro-1H-inden-2-yl)amino)phenyl)-2,2,2-trifluoroethyl)(methyl)carbamoyl)oxy)azetidine-1-carboxylate]: the pIC50 in assay [1] is 5.57.

Turning to `CN1C(=O)CCC1C(=O)N(C)[C@@H](c1ccc(N[C@H]2Cc3ccccc3C2(C)C)cn1)C(F)(F)F` (single isomer, unassigned) [Example 226], the results for the pIC50 (in assay [2] (48 hours); against FL hMALT1 enzyme) were 6.60 and 7.41, respectively.

For `CN(C(=O)C12CC(NS(C)(=O)=O)(C1)C2)[C@@H](c1ccc(N[C@H]2Cc3ccccc3C2(C)C)cn1)C(F)(F)F` [Example 233, N—((S)-1-(5-(((S)-1,1-dimethyl-2,3-dihydro-1H-inden-2-yl)amino)pyridin-2-yl)-2,2,2-trifluoroethyl)-N-methyl-3-(methylsulfonamido)bicyclo[1.1.1]pentane-1-carboxamide], the pIC50 was 6.77 in assay [2] (Homo sapiens, Jurkat, 48 h) and 7.70 on FL hMALT1 enzyme.

Consider `CN1C(=O)CCC1C(=O)N(C)[C@@H](c1ccc(N[C@H]2Cc3ccccc3C2(C)C)cn1)C(F)(F)F` (single isomer, unassigned) [Example 225], for which the pIC50 in assay [2] (48 hours) is 6.28; on FL hMALT1 enzyme, 7.20.

`CN(C(=O)CC#N)[C@@H](c1ccc(NC2Cc3ccc(Cl)c(Cl)c3C2)cn1)C(F)(F)F` (single isomer, unassigned) [Example 350]: the negative logarithm of the IC50 (pIC50) in assay [2] (Homo sapiens, Jurkat, 48 h) is 6.64; on FL hMALT1 enzyme it was 7.21.

Regarding `CN(C(=O)C1CCN(S(C)(=O)=O)CC1)[C@@H](c1ccc(NC2Cc3ccc(Cl)c(Cl)c3C2)cn1)C(F)(F)F` (single isomer, unassigned) [Example 325], the negative logarithm of the IC50 (pIC50) is 7.46 in assay [2] (Homo sapiens, Jurkat, 48 h) and 8.05 on FL hMALT1 enzyme.

As to `CN(C(=O)C1CNC(=O)CO1)[C@@H](c1ccc(NC2Cc3ccccc3C2(C)C)cn1)C(F)(F)F` (single isomer, unassigned) [Example 134], the pIC50 in assay [2] (48 hours) was 6.15; against FL hMALT1 enzyme it was 6.80.

As for `CN(C(=O)C1CCS(=O)(=O)CC1)[C@@H](c1ccc(NC2Cc3ccc(Cl)c(Cl)c3C2)cn1)C(F)(F)F` (single isomer, unassigned) [Example 279], the negative logarithm of the IC50 (pIC50) is 7.02 in assay [2] (Homo sapiens, Jurkat, 48 h) and 7.82 at FL hMALT1 enzyme.

Turning to `CN(C(=O)C1CCS(=O)(=O)CC1)[C@@H](c1ccc(NC2Cc3cccc(C(F)(F)F)c3C2)nc1)C(F)(F)F` (single isomer, unassigned) [Example 281], the pIC50 in assay [2] (Homo sapiens, Jurkat, 48 h) is 6.34; at FL hMALT1 enzyme, 7.85.

In the case of `CN(C(=O)C1CCS(=O)(=O)CC1)[C@@H](c1ccc(NC2Cc3cc(Cl)cc(F)c3C2)cn1)C(F)(F)F` (single isomer, unassigned) [Example 270], the pIC50 in assay [2] (Homo sapiens, Jurkat, 48 h) is 6.57; at FL hMALT1 enzyme it was 7.09.

Turning to `CN(C(=O)C1CCS(=O)(=O)CC1)[C@@H](c1ccc(NC2Cc3ccc(Cl)cc3C2)nc1)C(F)(F)F` (single isomer, unassigned) [Example 289], the negative logarithm of the IC50 (pIC50) is 6.52 in assay [2] (Homo sapiens, Jurkat, 48 h) and 7.35 at FL hMALT1 enzyme.
